Source: patent US10369195B2, “Methods and compositions for preventing and treating damage to the heart” (MandalMed, Inc., priority 2016, dated 2019)

Key:
[1] = tested on: rat ischemia-reperfusion model of MI; assay: Serial echocardiography (ejection fraction, ESV, EDV) after ischemia-reperfusion MI; type: in vivo; settings: out to 8 weeks post-MI; Gal-3C 600 μg/day days 4-10; losartan 8 mg/kg/day in drinking water 56 days; 15/group
Method: Animal experiments to test the therapeutic potential of Gal-3C in the preservation of post-MI cardiac function were performed using surgical induction of MI in rodents and functional evaluation of treatment as previously described (61-66). To most accurately model cardiac damage experienced by MI patients, a well-established ischemia-reperfusion procedure was used in which the left anterior descending coronary artery (LAD) of rats was occluded for 25 min followed by restoration of blood flow (67). This standard MI model is more clinically relevant than permanent LAD ligation models because the reperfusion experienced after post-MI angioplasty not only limits the size of the infarct, but paradoxically introduces free radical damage, and is well validated as a model for post-MI heart failure experimental therapies (68).
Experiments were performed according to the UCSF guidelines for rodent survival surgery and the Guide for the Care and Use of Laboratory Animals of the US National Institutes of Health. Male Sprague-Dawley rats (age 10-12 weeks) were anesthetized with isoflurane (2%), received analgesics (buprenorphine (0.1 mg/kg), subcutaneous injection) pre- and post-operation, and underwent ischemia-reperfusion MI involving temporary (25 minutes) occlusion of the left anterior descending coronary artery (LAD) to produce regional moderate myocardial ischemia.
Briefly, rats were ventilated to a small animal volume-controlled ventilator (Harvard Rodent Ventilator, Model 683, South Natick, Mass.), and the heart was exposed via thoracotomy. Occlusion proceeds with a 7-0 nonabsorbable surgical suture passed under the LAD 2-3 mm from tip of the normally positioned left auricle and tied around a 1-mm section of PE-50 tubing, tightening with an artery clamp to temporarily occlude the LAD. After occlusion for 25 minutes, reperfusion was allowed to the formerly ischemic bed. The chest was then closed with removal of excess fluid and air from the chest cavity. All animals were monitored post-operation until they became ambulatory. The mortality during MI procedure was 12%.
The highest dose, 600 μg/rat/day, and the lowest dose, 200 μg/rat/day, were chosen for continued study, representing approximately 2- and 5.5-fold higher doses based on body surface area of rats than was used in the multiple myeloma study of Gal-3C in mice (70). Groups of rats (n=10) were treated with low (200 μg/day) and high (600 μg/day doses of Gal-3C or with PBS-lactose (vehicle control) administered over 0-6 days post-MI (“early window”; primed pumps were implanted several minutes before the MI procedure on day 0). These groups were designed to be sufficiently powered to detect potentially statistically significant improvement from Gal-3C treatment.
(§1) Pre-filled and primed mini-osmotic pumps were implanted a few minutes before surgical induction of MI and Gal-3C treatment continued for 7 days (denoted as “early window”) as in the pilot study described above. The effect of treatment on cardiac function was evaluated by serial echocardiography on day 0 pre-MI, 2 and 28 days post-MI, and LV pressure measurement at 28 days. For the early window, groups consisted of sham surgery with PBS, sham with 600 μg/day Gal-3C, MI with PBS, MI with 200 μg/day Gal-3C, and MI with 600 μg/day Gal-3C.
In a subsequent experiment, the high dose Gal-3C and the PBS control were administered by Alzet pump over a delayed delivery window of from 4 days until 10 days post-MI (denoted as “delayed window”) to rats that had been subjected to the same ischemia-reperfusion procedure as described in Example 2 above. Delayed treatment might better enable fibrotic repair of the infarct while preventing wall rupture. […]

[2] = tested on: rat ischemia-reperfusion model of MI; assay: Intraventricular (LV) pressure / hemodynamic measurements after ischemia-reperfusion MI; type: in vivo; settings: 8 weeks post-MI; Gal-3C 600 μg/day days 4-10; losartan 8 mg/kg/day in drinking water 56 days; 15/group
Method: as §1
Serial echocardiography was performed at 2, 28, and 56 days (8 weeks) post-MI and terminal intraventricular pressure catheter measurements were obtained. The effect on cardiac function from losartan was compared to the effect of Gal-3C that included data from the 12 animals in the Gal-3C and the 12 animals in the vehicle-only group that were presented in FIG. 9 and FIG. 10. […] The results described herein indicate that treatment with Gal-3C post-MI would be more beneficial on recovery and preservation of heart function compared to treatment with losartan or another ARB alone.

CCCCc1nc(Cl)c(CO)n1Cc1ccc(-c2ccccc2-c2nn[nH]n2)cc1 [losartan, reference compound]
no significant benefit: EF, benefit relative to PBS [1] | LVEDP, benefit relative to PBS [2] | LVSP, benefit relative to PBS [2] | mean ABP, benefit relative to PBS [2]
